Measured values reported in US11524938B2, “Aromatic sulfonamide derivatives” (Bayer Pharma Aktiengesellschaft, priority 2016, dated 2022).

Molecular target: T1, human P2X4 (Homo sapiens, UniProt Q99571)
T1 sequence (Q99571 1-388): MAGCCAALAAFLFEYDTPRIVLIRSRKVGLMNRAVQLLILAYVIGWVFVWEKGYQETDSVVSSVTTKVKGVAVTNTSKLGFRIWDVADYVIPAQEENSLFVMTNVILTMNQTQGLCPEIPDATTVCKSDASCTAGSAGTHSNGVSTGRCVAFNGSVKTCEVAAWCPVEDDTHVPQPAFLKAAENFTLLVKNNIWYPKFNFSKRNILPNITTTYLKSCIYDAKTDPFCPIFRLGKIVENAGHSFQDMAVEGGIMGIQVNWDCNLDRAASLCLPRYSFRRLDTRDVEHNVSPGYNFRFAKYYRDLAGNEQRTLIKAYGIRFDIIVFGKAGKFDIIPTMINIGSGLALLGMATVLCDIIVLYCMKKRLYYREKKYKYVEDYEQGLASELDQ
Test: Human P2X4 HEK Cell FLIPR Assay
Type: cell-based
Settings: agonist Bz-ATP at EC80; for Emax: HEK293, HEK293 cells, percentage of maximal inhibition, read-out: Human P2X4 HEK Cells (FLIPR Assay) avg Efficacy [%]; for IC50: HEK293 cells, individual values listed where some fall outside detection range
How it was run: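 Calcium flux read by FLIPR for 120 sec after Bz-ATP challenge at EC80 (established each assay day), following 30 min room-temperature compound preincubation in dye-loaded stable human P2X4 HEK293 cells. Peak RFU over basal normalized to agonist control; IC50, maximal inhibition and Hill coefficient from triplicate means.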

| Emax [%] | IC50 [µM] | Compound |
| --- | --- | --- |
| 73 | 2.34 | NS(=O)(=O)c1cc(NC(=O)Cc2ccccc2Cl)ccc1-n1nc2cc(F)cc(F)c2n1 [Example 482, 2-(2-Chlorophenyl)-N-[4-(4,6-difluoro-2H-benzotriazol-2-yl)-3-sulfamoylphenyl]acetamide] |
| 86 | 0.024 | NS(=O)(=O)c1cc(NC(=O)Cc2ccccc2Cl)ccc1-c1cnsc1 [Example 426, 2-(2-Chlorophenyl)-N-[3-sulfamoyl-4-(1,2-thiazol-4-yl)phenyl]acetamide] |
| 69 | 0.2 | NS(=O)(=O)c1cc(NC(=O)Cc2ccc(C(F)(F)F)cc2Cl)ccc1-n1cc(C(F)(F)F)nn1 [Example 415, 2-[2-Chloro-4-(trifluoromethyl)phenyl]-N-{3-sulfamoyl-4-[4-(trifluoromethyl)-1H-1,2,3-triazol-1-yl]phenyl}acetamide] |
| 82 | 0.342 | NS(=O)(=O)c1cc(NC(=O)Cc2cccc(F)c2F)ccc1-n1cc(Cl)cn1 [Example 87, N-[4-(4-Chloro-1H-pyrazol-1-yl)-3-sulfamoylphenyl]-2-(2,3-difluorophenyl)acetamide] |
| 92 | 0.033 | Cn1cc(-c2ccc(NC(=O)Cc3c(F)cccc3Cl)cc2S(N)(=O)=O)cn1 [Example 339, 2-(2-Chloro-6-fluorophenyl)-N-[4-(1-methyl-1H-pyrazol-4-yl)-3-sulfamoylphenyl]-acetamide] |
| 92 | 0.072 | Cn1ccc(-c2ccc(NC(=O)Cc3ccccc3Cl)cc2S(N)(=O)=O)c1 [Example 529, 2-(2-Chlorophenyl)-N-[4-(1-methyl-1H-pyrrol-3-yl)-3-sulfamoylphenyl]acetamide] |
| 96 | 0.195 | CC1(Cn2cc(-c3ccc(NC(=O)Cc4ccccc4Cl)cc3S(N)(=O)=O)cn2)COC1 [Example 276, 2-(2-Chlorophenyl)-N-(4-{1-[(3-methyloxetan-3-yl)methyl]-1H-pyrazol-4-yl}-3-sulfamoylphenyl)acetamide] |
| 87 | 0.21 | NS(=O)(=O)c1cc(NC(=O)Cc2ccccc2Cl)ccc1-n1cnc2cccnc21 [Example 43, 2-(2-Chlorophenyl)-N-[4-(3H-imidazo[4,5-b]pyridin-3-yl)-3-sulfamoylphenyl]-acetamide] |
| 54 | 0.073 | NS(=O)(=O)c1cc(NC(=O)Cc2cc(F)ccc2Cl)ccc1-n1cnc(C(F)(F)F)n1 [Example 58, 2-(2-Chloro-5-fluorophenyl)-N-{3-sulfamoyl-4-[3-(trifluoromethyl)-1H-1,2,4-triazol-1-yl]phenyl}acetamide] |
| 85 | 0.041 | NS(=O)(=O)c1cc(NC(=O)Cc2ccccc2Cl)ccc1-n1cc(-c2ccccn2)cn1 [Example 402, 2-(2-Chlorophenyl)-N-{4-[4-(pyridin-2-yl)-1H-pyrazol-1-yl]-3-sulfamoylphenyl}acetamide] |
| 63 | 0.401 | N#Cc1cnn(-c2cc(C(F)(F)F)c(NC(=O)Cc3ccccc3Cl)cc2S(N)(=O)=O)c1 [Example 484, 2-(2-Chlorophenyl)-N-[4-(4-cyano-1H-pyrazol-1-yl)-5-sulfamoyl-2-(trifluoromethyl)phenyl]acetamide] |
| 72 | 5.17 | Cc1nnc(-c2ccc(NC(=O)Cc3ccccc3F)cc2S(N)(=O)=O)o1 [Example 525, 2-(2-Fluorophenyl)-N-[4-(5-methyl-1,3,4-oxadiazol-2-yl)-3-sulfamoylphenyl]acetamide] |
| 91 | 0.097 | NS(=O)(=O)c1cc(NC(=O)Cc2ccccc2Cl)ccc1-c1cnn(CC(F)F)c1 [Example 303, 2-(2-Chlorophenyl)-N-{4-[1-(2,2-difluoroethyl)-1H-pyrazol-4-yl]-3-sulfamoylphenyl}acetamide] |
| 75 | 0.097 | Cc1cc(O)nn1-c1ccc(NC(=O)Cc2ccccc2Cl)cc1S(N)(=O)=O [Example 546, 2-(2-Chlorophenyl)-N-[4-(3-hydroxy-5-methyl-1H-pyrazol-1-yl)-3-sulfamoylphenyl]acetamide] |
| 88 | 0.149 | NS(=O)(=O)c1cc(NC(=O)Cc2ccccc2F)ccc1-n1cc(Cl)cn1 [Example 50, N-[4-(4-Chloro-1H-pyrazol-1-yl)-3-sulfamoylphenyl]-2-(2-fluorophenyl)acetamide] |
| 80 | 0.036 | NS(=O)(=O)c1cc(NC(=O)Cc2ccccc2Cl)ccc1-n1cc(CC(F)(F)F)cn1 [Example 518, 2-(2-Chlorophenyl)-N-{3-sulfamoyl-4-[4-(2,2,2-trifluoroethyl)-1H-pyrazol-1-yl]phenyl}acetamide] |

| Emax [%] | IC50 [µM] | Compound |
| --- | --- | --- |
| 35 | > 25 | NS(=O)(=O)c1cc(NC(=O)Cc2ccc(Cl)cc2)ccc1-n1cc(C(F)(F)F)cn1 [Example 108, 2-(4-Chlorophenyl)-N-{3-sulfamoyl-4-[4-(trifluoromethyl)-1H-pyrazol-1-yl]phenyl}-acetamide] |
| 56 | 0.211 | NS(=O)(=O)c1cc(NC(=O)Cc2ccc(F)cc2)ccc1-n1cc(F)cn1 [Example 149, 2-(4-Fluorophenyl)-N-[4-(4-fluoro-1H-pyrazol-1-yl)-3-sulfamoylphenyl]acetamide] |
| 89 | 0.011 | N#Cc1cnn(-c2ccc(NC(=O)Cc3c(O)cccc3Cl)cc2S(N)(=O)=O)c1 [Example 557, 2-(2-Chloro-6-hydroxyphenyl)-N-[4-(4-cyano-1H-pyrazol-1-yl)-3-sulfamoylphenyl]acetamide] |
| 96 | 0.093 | NS(=O)(=O)c1cc(NC(=O)Cc2ccccc2C(F)(F)F)ccc1-n1cc(Cl)cn1 [Example 234, N-[4-(4-Chloro-1H-pyrazol-1-yl)-3-sulfamoylphenyl]-2-[2-(trifluoromethyl)-phenyl]acetamide] |
| 93 | – | NS(=O)(=O)c1cc(NC(=O)Cc2ccccc2Cl)ccc1-n1cc(Cl)cn1 [Example 25, 2-(2-Chlorophenyl)-N-[4-(4-chloro-1H-pyrazol-1-yl)-3-sulfamoylphenyl]acetamide] |
| 94 | 0.054 | NS(=O)(=O)c1cc(NC(=O)Cc2ccccc2Cl)ccc1-c1cnc(OCC(F)(F)F)nc1 [Example 284, 2-(2-Chlorophenyl)-N-{3-sulfamoyl-4-[2-(2,2,2-trifluoroethoxy)pyrimidin-5-yl]phenyl}-acetamide] |
| 86 | 0.429 | COc1ccc(CC(=O)Nc2ccc(-n3cc(C(F)(F)F)nn3)c(S(N)(=O)=O)c2)cc1 [Example 407, 2-(4-Methoxyphenyl)-N-{3-sulfamoyl-4-[4-(trifluoromethyl)-1H-1,2,3-triazol-1-yl]phenyl}acetamide] |
| 98 | 0.009 | NS(=O)(=O)c1cc(NC(=O)Cc2ccccc2F)ccc1-c1nnc(C2CC2)o1 [Example 376, N-[4-(5-Cyclopropyl-1,3,4-oxadiazol-2-yl)-3-sulfamoylphenyl]-2-(2-fluorophenyl)-acetamide] |
| 86 | 0.125 | NS(=O)(=O)c1cc(NC(=O)Cc2ccccc2Cl)ccc1-c1cc[nH]c1 [Example 527, 2-(2-Chlorophenyl)-N-[4-(1H-pyrrol-3-yl)-3-sulfamoylphenyl]acetamide] |
| 78 | 0.102 | NS(=O)(=O)c1cc(NC(=O)Cc2ccccc2F)ccc1-c1cncc(F)c1 [Example 362, 2-(2-Fluorophenyl)-N-[4-(5-fluoropyridin-3-yl)-3-sulfamoylphenyl]acetamide] |
| 83 | 0.383 | N#Cc1cnn(-c2ccc(NC(=O)Cc3cccc(O)c3Cl)cc2S(N)(=O)=O)c1 [Example 554, 2-(2-Chloro-3-hydroxyphenyl)-N-[4-(4-cyano-1H-pyrazol-1-yl)-3-sulfamoylphenyl]acetamide] |
| 84 | 0.211 | NS(=O)(=O)c1cc(NC(=O)Cc2cc(Cl)ccc2Cl)ccc1-n1cc(C(F)(F)F)cn1 [Example 136, 2-(2,5-Dichlorophenyl)-N-{3-sulfamoyl-4-[4-(trifluoromethyl)-1H-pyrazol-1-yl]phenyl}-acetamide] |
| 63 | 0.132 | NS(=O)(=O)c1cc(NC(=O)Cc2cccc(Cl)c2)ccc1-n1cc(F)cn1 [Example 148, 2-(3-Chlorophenyl)-N-[4-(4-fluoro-1H-pyrazol-1-yl)-3-sulfamoylphenyl]acetamide] |
| 78 | 0.116 | COc1cccc(Cl)c1CC(=O)Nc1ccc(-n2cc(C(F)(F)F)cn2)c(S(N)(=O)=O)c1 [Example 142, 2-(2-Chloro-6-methoxyphenyl)-N-{3-sulfamoyl-4-[4-(trifluoromethyl)-1H-pyrazol-1-yl]phenyl}acetamide] |
| 99 | – | NS(=O)(=O)c1cc(NC(=O)Cc2ccccc2Cl)ccc1-c1cnn(C2CC2)c1 [Example 349, 2-(2-Chlorophenyl)-N-[4-(1-cyclopropyl-1H-pyrazol-4-yl)-3-sulfamoylphenyl]acetamide] |
| 75 | 0.557 | NS(=O)(=O)c1cc(NC(=O)Cc2ccccc2F)ccc1-n1cnc(C(F)(F)F)n1 [Example 54, 2-(2-Fluorophenyl)-N-{3-sulfamoyl-4-[3-(trifluoromethyl)-1H-1,2,4-triazol-1-yl]phenyl}acetamide] |
